Reference: ChEMBL document CHEMBL1212898 (J Med Chem, 2010)

Legend:
Rattus norvegicus [1] = species on record: Rattus norvegicus; test: Selectivity ratio of Ki for NET in rat brain frontal cortex to Ki for SERT in rat brain stem; type: tissue-based
[2] = target: Sodium-dependent dopamine transporter (Rattus norvegicus, UniProt P23977); test: Displacement of [3H]WIN-35428 from DAT in rat caudate-putamen by scintillation counting; type: tissue-based
Transporter = Transporter (Rattus norvegicus, UniProt Q63380); test: Displacement of [3H]nisoxetine from NET in rat frontal cortex by scintillation counting; type: tissue-based
[3] = target: Sodium-dependent serotonin transporter (Rattus norvegicus, UniProt P31652); test: Displacement of [3H]citalopram from SERT in rat brain stem by scintillation counting; type: tissue-based
Rattus norvegicus [4] = species on record: Rattus norvegicus; test: Selectivity ratio of Ki for DAT in rat caudate-putamen to Ki for SERT in rat brain stem; type: tissue-based
[5] = Displacement of [3H]leucine from Leucine transporter

Sequence of Sodium-dependent dopamine transporter (P23977 whole entry): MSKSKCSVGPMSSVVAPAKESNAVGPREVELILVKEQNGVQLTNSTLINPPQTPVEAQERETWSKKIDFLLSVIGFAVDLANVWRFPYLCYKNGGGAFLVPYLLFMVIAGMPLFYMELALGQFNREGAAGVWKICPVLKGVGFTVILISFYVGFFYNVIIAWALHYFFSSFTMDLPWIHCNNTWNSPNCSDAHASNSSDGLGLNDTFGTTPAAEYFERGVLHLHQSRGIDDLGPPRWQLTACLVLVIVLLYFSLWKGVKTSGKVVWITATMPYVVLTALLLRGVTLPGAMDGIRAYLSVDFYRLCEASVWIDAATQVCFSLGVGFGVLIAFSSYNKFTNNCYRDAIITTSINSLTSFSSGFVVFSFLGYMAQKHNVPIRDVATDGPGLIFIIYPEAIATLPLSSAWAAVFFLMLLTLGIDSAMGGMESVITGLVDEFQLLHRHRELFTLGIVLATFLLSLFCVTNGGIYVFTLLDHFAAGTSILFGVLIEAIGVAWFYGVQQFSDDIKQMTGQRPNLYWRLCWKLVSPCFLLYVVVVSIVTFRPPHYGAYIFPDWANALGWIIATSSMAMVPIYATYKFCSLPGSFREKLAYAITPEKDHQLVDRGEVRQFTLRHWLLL
Sequence of Sodium-dependent serotonin transporter (P31652 whole entry): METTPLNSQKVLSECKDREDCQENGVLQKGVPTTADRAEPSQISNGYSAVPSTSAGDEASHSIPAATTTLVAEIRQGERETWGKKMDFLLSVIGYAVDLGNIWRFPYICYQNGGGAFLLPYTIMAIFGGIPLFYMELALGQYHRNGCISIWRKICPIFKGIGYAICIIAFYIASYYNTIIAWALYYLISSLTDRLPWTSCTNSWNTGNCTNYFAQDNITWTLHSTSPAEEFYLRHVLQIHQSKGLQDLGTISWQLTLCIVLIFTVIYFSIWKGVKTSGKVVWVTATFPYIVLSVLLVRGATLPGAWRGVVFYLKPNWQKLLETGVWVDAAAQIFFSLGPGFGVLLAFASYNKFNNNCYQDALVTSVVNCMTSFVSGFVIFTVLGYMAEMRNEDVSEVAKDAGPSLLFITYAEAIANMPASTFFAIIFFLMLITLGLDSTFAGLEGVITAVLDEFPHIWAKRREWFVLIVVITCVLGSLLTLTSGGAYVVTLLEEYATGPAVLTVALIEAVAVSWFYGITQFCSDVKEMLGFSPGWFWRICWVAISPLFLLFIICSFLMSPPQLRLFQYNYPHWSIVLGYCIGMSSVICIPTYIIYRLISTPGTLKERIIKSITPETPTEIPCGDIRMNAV
Sequence of Transporter (Q63380 whole entry): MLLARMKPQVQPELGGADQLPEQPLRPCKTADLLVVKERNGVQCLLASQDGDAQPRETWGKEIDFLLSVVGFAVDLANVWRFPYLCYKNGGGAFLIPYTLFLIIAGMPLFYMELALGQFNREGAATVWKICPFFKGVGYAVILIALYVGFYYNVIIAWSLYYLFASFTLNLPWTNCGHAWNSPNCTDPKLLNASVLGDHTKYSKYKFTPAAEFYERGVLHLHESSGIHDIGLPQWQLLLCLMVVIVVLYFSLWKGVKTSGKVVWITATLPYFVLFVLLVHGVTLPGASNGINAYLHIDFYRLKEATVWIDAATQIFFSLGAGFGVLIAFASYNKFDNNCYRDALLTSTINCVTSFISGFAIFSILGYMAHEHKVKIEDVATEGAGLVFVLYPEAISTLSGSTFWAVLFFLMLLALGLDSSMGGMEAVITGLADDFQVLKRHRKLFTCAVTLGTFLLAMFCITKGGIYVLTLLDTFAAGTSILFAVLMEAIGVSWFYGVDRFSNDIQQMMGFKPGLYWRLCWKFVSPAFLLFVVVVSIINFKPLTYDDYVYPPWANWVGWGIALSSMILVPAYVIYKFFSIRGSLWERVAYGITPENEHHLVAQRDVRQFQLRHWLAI

| SMILES | Ratio Ki (Rattus norvegicus [1]) | Ki [2] [µM] | Ki (Transporter) [µM] | Ki [3] [µM] | Ratio Ki (Rattus norvegicus [4]) | IC50 [5] [µM] |
| --- | --- | --- | --- | --- | --- | --- |
| CN(C)CCC[C@]1(c2ccc(F)cc2)OCc2cc(/C=C/c3ccccc3)ccc21 | 46 | 0.541 | 5.19 | 0.113 | 4.79 | – |
| CN(C)CCC[C@@]1(c2ccc(F)cc2)OCc2cc(C#N)ccc21 [ESCITALOPRAM] | – | – | – | – | – | 1560 |
| CN(C)CCCC1(c2ccc(F)cc2)OCc2cc(-c3ccccc3)ccc21 (configuration not stated) | 423 | 1.8 | 16.9 | 0.04 | 45 | – |
| CN(C)CCC[C@@]1(c2ccc(F)cc2)OCc2cc(/C=C/c3ccccc3)ccc21 | 1590 | 1.81 | 16.8 | 0.0106 | 171 | – |
| CN(C)CCCC1(c2ccc(F)cc2)OCc2c(Br)cccc21 (configuration not stated) | 1590 | 0.216 | 6.17 | 0.00387 | 56 | – |
| CN(C)CCCC1(c2ccc(F)cc2)OCc2cc(I)ccc21 (configuration not stated) | – | 1.35 | – | 0.00142 | – | – |
| CN(C)CCCC1(c2ccc(F)cc2)OCc2c(-c3ccccc3)cccc21 (configuration not stated) | 1410 | 0.542 | 7.16 | 0.00507 | 107 | – |
| CN(C)CCCC1(c2ccc(F)cc2)OCc2cc(Br)ccc21 (racemic) | – | – | 28.4 | 0.00104 | – | – |
| CN(C)CCCC1(c2ccc(F)cc2)OCc2cc(-c3cccc(C#N)c3)ccc21 (configuration not stated) | 743 | 0.737 | 4.98 | 0.0067 | 110 | – |
| CN(C)CCCC1(c2ccc(F)cc2)OCc2cc(-c3cccc(F)c3)ccc21 (configuration not stated) | – | – | 4.2 | 0.0218 | – | – |
| CN(C)CCCC1(c2ccc(F)cc2)OCc2cc(-c3cccc(N)c3)ccc21 (configuration not stated) | – | 1.69 | – | 0.0104 | – | – |
| CN(C)CCCC1(c2ccc(F)cc2)OCc2c(-c3cccc(F)c3)cccc21 (configuration not stated) | 933 | 0.49 | 7.67 | 0.00822 | 60 | – |
| CN(C)CCC[C@@]1(c2ccc(F)cc2)OCc2cc(Br)ccc21 | 9140 | 2.25 | 8.41 | 0.00092 | 2450 | 400 |
| CN(C)CCCC1(c2ccc(F)cc2)OCc2cc(/C=C/c3ccc(Cl)cc3)ccc21 (configuration not stated) | 747 | 2 | 25.1 | 0.0336 | 60 | – |
| CN(C)CCC[C@]1(c2ccc(F)cc2)OCc2cc(Br)ccc21 | 915 | 1.35 | 21.6 | 0.0236 | 57 | 420 |
| CN(C)CCCC1(c2ccc(F)cc2)OCc2cc(CCc3ccccc3)ccc21 (configuration not stated) | – | – | 4.63 | 0.0381 | – | – |
| CN(C)CCCC1(c2ccc(F)cc2)OCc2cc(/C=C/c3ccccc3)ccc21 (racemic) | 1220 | 0.836 | 11.4 | 0.00932 | 90 | – |
| CN(C)CCCC1(c2ccc(F)cc2)OCc2cc(-c3ccc(Cl)c(Cl)c3)ccc21 (configuration not stated) | 89 | 2.51 | 12.7 | 0.143 | 18 | – |
| COc1cccc(-c2ccc3c(c2)COC3(CCCN(C)C)c2ccc(F)cc2)c1 (configuration not stated) | – | – | 2.61 | 0.0092 | – | – |
| CN(C)CCCC1(c2ccc(F)cc2)OCc2c(/C=C/c3ccccc3)cccc21 (configuration not stated) | 256 | 1.14 | 11.9 | 0.0464 | 25 | – |
| CN(C)CCCC1(c2ccc(F)cc2)OCc2cc(-c3cc(F)cc(F)c3)ccc21 (configuration not stated) | – | – | 2 | 0.108 | – | – |
| CN(C)CCCC1(c2ccc(F)cc2)OCc2cc(-c3cccc(Cl)c3)ccc21 (configuration not stated) | 93 | 1.39 | 5.71 | 0.0612 | 23 | – |
